Here are results for one compound from patent US12433860B2, “Treatment of multiple sclerosis comprising DHODH inhibitors” (Immunic AG, priority 2021, dated 2025).

This test has as its system neurofilament light chain in serum. The experiment in a line: EMPhASIS: change in serum neurofilament light chain. The note with it: for Median change in neurofilament light chain in serum from baseline to week 24: placebo 6.5%. It is filed as in vivo, human. The protocol: Other secondary endpoints included: the difference in the cumulative number of combined unique active lesions up to week 24 between vidofludimus calcium 45 mg and vidofludimus calcium 30 mg; number or cumulative number of gadolinium-enhancing, T1, or T2 lesions up to 24 weeks; annualized relapse rate from baseline until week 24; proportion of relapse-free patients up to week 24; time-to-first relapse; change in EDSS score from baseline; proportion of patients with EDSS score progression; brain atrophy and other MRI endpoints; and safety and tolerability as assessed by the investigators. Annualized relapse rate was defined as the total number of confirmed relapses divided by the real exposure time in years assessed over the time during the double-blind treatment period. EDSS progression was defined as an increase compared to baseline of at least 1.0 point for patients with a baseline EDSS score of 1.0 to 4.0 or of at least 1.5 points for patients with a baseline EDSS score of 0. Vidofludimus calcium trough concentrations (weeks 6 and 24) were used to assess the correlation between pharmacokinetics and MRI-based assessments. The effects of vidofludimus calcium on serum neurofilament (baseline and week 24) were also analyzed.
Based on pre-clinical and clinical studies and the single and multiple-dose Phase 1 studies with IMU-838, daily doses of IMU-838 of up to 50 mg once daily are considered safe. […] A post-hoc analysis from EMPhASIS study (see Example 1 and 2) in the non-relapse active subgroup of rrMS patients was conducted. […] Change in mean EDSS from baseline to Week 24 in a non-relapse active subgroup of rrMS patients (patients without relapse between baseline and Week 24).

Structures can show the parent of a compound that is named as a salt.

Consider `COc1cccc(-c2ccc(NC(=O)C3=C(C(=O)O)CCC3)c(F)c2)c1` [vidofludimus calcium, 1-cyclopentene-1-carboxylic acid, 2-(((3-fluoro-3′-methoxy(1,1′-biphenyl)-4-yl)amino)carbonyl)-, calcium salt (2:1)], for which the “Median change in neurofilament light chain in serum from baseline to week 24” value by setting is: (30 mg once daily) −17.0%; (45 mg once daily) −20.5%. The “decrease in serum neurofilament light chain (NfL), dose comparison” value (45 mg dose, FIG. 3A) was “greater decrease”.
